Reference: patent US20220257552A1, “METHODS OF PRESCREENING AND TREATING BREAST CANCERS WITH SELECTIVE ANDROGEN RECEPTOR MODULATORS” (priority 2021, published 2022)

Experiments:
Format in all cases: cell-based
PR = target: T1, PR (Rattus norvegicus, UniProt Q63449); test: PR transactivation in HEK-293 cells
T1 construct: expressed in transfected cells
T1 sequence (Q63449 1-923): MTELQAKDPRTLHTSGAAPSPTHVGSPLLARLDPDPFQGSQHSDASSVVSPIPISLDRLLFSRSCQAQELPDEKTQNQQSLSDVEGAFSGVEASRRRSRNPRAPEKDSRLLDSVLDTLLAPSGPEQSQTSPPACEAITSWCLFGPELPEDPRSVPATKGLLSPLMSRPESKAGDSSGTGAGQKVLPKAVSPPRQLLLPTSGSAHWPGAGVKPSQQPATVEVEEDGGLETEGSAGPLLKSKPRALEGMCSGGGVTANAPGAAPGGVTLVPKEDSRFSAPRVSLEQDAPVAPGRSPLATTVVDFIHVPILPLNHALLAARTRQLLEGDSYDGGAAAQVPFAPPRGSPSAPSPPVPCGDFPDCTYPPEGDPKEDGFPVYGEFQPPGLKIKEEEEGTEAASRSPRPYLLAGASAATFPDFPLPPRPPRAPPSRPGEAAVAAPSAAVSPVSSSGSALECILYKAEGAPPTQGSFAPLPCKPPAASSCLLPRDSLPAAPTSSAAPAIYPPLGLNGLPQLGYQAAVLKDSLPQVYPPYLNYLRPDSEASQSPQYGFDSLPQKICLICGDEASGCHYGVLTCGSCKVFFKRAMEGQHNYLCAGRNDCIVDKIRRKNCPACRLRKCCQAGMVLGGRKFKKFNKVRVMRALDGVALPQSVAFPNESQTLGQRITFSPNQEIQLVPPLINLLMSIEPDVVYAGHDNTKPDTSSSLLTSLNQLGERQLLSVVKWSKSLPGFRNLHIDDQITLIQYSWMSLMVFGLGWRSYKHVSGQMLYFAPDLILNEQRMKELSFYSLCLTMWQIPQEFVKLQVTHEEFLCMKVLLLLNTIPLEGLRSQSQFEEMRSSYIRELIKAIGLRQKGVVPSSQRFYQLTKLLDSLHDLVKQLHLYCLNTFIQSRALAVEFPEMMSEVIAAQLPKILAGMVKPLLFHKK
Procedure: (§1) Rat GR, MR, PR, ER-α and ER-β were individually cloned into a pCR3.1 vector backbone. Sequencing was performed to verify the absence of any mutations. HEK-293 cells were plated at 90,000 cells per well of a 24 well plate in Dulbecco's Minimal Essential Media supplemented with 5% charcoal-stripped FBS. […] Luciferase assays were performed 48 h after transfection. Transcriptional activation values are represented as firefly luciferase normalized to renilla luciferase.

[1] = test system: MDA-MB-231 triple negative breast cancer cells; test: SRB cell viability, MDA-MB-231 cells infected with AR adenovirus
Procedure: (§2) The SRB assay was used to determine cell number during cytotoxocity experiments. The following protocol was used: • 1. Cells were detached with 0.25% trypsin. • 2. Experimental cultures were cultured in 96-well microtiter plates (200 μL growth medium per well; 1,000-200,000 cells per well). • 3. Cultures were fixed with 50 μL 50% TCA (4° C.). (see cell fixation protocol for details). • 4. Fixed cells were stained with 50 μL 0.4% (wt/vol) SRB in 1% acetic acid for 10 minutes. • 5. SRB was removed and the cultures were quickly* rinsed 5 times with 1% acetic acid to remove unbound dye.** • 6. Cultures were air-dried overnight until there was no visible moisture. • 7. The cellular protein-bound SRB was dissolved with 200 μL unbuffered Tris base (10 mM, pH 10.5) for 30 minutes on a rocking platform shaker. • 8. Absorbance was read at 540 nm. * quickly performing rinsing process was to prevent desorption of protein-bound SRB ** completely removed residual wash solution by sharply flicking plates over sink.
(§3) The following protocol was used for fixing cells: • a. 50 μL of 50% TCA (4° C.) was gently layered on the top of growth medium in each well to make a final TCA concentration of 10%. • b. Cultures were incubated at 4° C. for 1 hour. • c. Cultures were washed 5 times with tap water to remove TCA, growth medium, low-molecular-weight metabolites, and serum protein. • d. Plates were air-dried until there was no visible moisture.
Cells were treated in charcoal stripped FBS (FIGS. 4A, 4C, 4E, 4G, 4I, 4K, 4M and 4O) or full serum (FIGS. 4B, 4D, 4F, 4H, 4J, 4L, 4N and 4P) for 3 days, fixed and stained with […] (SRB) to measure cell viability. Anti-proliferative IC50 values were calculated in breast cancer cells and compared to transactivation values, i.e., EC50 (agonists) and IC50 (antagonists) values, generated in HEK-293 cells.

MDA-MB-231-AR cells = test: Morphology of MDA-MB-231-AR cells; conditions: 3 days
Procedure: MDA-MB-231 cells were stably transfected with AR using lentivirus. […] Live cells were visualized using a light-microscope and photographed. The cells were imaged at the same magnification and under the same microscopic conditions.
MDA-MB-231 cells were stably transfected with AR using lentivirus and were treated with vehicle or AR agonists at the indicated concentrations. At the end of 3 days of incubation, the cells were imaged under a microscope (40×).

[2] = test system: HCC-38 triple negative breast cancer cells; test: SRB cell viability, HCC-38 cells infected with AR adenovirus; conditions: 3 days
Procedure: as §2
as §3, with “Plates were air-dried until there was no visible moisture.” left out

HCI-13 tumor fragments = test: HCI-13 ex vivo sponge culture, real time PCR; conditions: for reversal of pS2 gene expression inhibited by Formula IX: 100 nM PMA or 100 ng/mL EGF before 1 μM Formula IX
Procedure: HCI-13 tumors grown in female mice were allowed to reach 500-1000 mm^3 before the animals were sacrificed and the tumors were excised to be used for sponge culture. Patient specimens frozen in liquid nitrogen in freezing medium were used for sponge culture. […] Tumors were sliced into small pieces (˜1 mm^3) and incubated on pre-soaked gelatin sponges (5 fragments/sponge) in 12 well plates containing 1.5 mL medium (MEM+10% FBS+2 mM L-glutamine+10 μg/mL insulin+10 μg/mL hydrocortisone+penicillin:streptomycin). The cultures were performed in triplicates for HCI-13 and singly for patient specimens. Pooled samples (n=5/sponge) from each sponge constituted one sample. Tissues were harvested after 3 days of treatment, RNA extracted, and expression of various genes measured. Although the same procedure was adopted for specimens obtained from breast cancer patients, the specimens were cultured singly (n=5/sponge=one sample) and not in triplicates as performed for HCI-13.

MR = target: T2, MR (Rattus norvegicus, UniProt P22199); test: MR transactivation in HEK-293 cells; conditions: 1 nM
T2 construct: expressed in transfected cells
T2 sequence (P22199 1-981): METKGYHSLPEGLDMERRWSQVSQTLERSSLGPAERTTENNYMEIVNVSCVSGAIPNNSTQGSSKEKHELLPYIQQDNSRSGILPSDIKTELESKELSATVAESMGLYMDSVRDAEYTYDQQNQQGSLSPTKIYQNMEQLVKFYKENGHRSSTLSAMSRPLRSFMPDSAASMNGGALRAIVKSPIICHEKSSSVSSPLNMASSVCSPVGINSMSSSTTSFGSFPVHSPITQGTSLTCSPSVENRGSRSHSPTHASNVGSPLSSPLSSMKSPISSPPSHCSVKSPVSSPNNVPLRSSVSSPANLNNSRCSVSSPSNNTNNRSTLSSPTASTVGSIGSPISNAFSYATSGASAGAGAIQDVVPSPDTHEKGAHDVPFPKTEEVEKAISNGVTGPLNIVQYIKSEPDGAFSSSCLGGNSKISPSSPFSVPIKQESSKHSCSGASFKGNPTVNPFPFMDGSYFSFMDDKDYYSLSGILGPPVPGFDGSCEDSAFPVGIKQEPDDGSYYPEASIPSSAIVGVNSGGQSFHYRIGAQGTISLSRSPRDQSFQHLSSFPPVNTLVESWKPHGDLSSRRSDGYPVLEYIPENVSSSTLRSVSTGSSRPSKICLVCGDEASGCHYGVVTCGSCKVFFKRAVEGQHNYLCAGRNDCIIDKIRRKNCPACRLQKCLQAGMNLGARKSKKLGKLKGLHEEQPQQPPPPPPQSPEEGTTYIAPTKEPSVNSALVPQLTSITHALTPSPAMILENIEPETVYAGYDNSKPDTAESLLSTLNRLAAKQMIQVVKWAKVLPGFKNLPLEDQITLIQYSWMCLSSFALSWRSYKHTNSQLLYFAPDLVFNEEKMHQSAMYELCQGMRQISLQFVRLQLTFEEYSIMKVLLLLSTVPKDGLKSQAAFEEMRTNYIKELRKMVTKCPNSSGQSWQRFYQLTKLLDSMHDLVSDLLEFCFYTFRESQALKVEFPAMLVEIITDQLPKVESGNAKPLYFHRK
Procedure: as §1

Question: How did the IC50 (PR) turn out when `C[C@@](O)(COc1ccc(C#N)cc1)C(=O)Nc1ccc(C#N)c(C(F)(F)F)c1` [R-enantiomer of Formula IX, (R)—N-(4-cyano-3-(trifluoromethyl)phenyl)-3-(4-cyanophenoxy)-2-hydroxy-2-methylpropanamide] was run?
Answer: 1690 nM

Question: How did the “growth inhibitory effects in the presence of bicalutamide” value ([1]; AR-positive cells, 10 μM bicalutamide) turn out when `C[C@]12CCC(=O)C[C@@H]1CC[C@@H]1[C@@H]2CC[C@]2(C)[C@@H](O)CC[C@@H]12` [DHT, 5α-dihydrotestosterone, reference compound] was run?
Answer: weakened growth inhibitory effects

Question: What about the cell growth ([1]; cells with AR, 3 days, SRB) of the same compound?
Answer: inhibited

Question: What about the cell morphology (MDA-MB-231-AR cells) of the same compound?
Answer: altered the morphology into a more anchored phenotype

Question: What about the cell growth [2] of the same compound?
Answer: inhibited

Question: What about the “inhibition of ER-induced pS2 and PR gene expression” value (HCI-13 tumor fragments; 10 nM DHT, 1 μM Formula IX, 100 nM fulvestrant, 3 days) of the same compound?
Answer: effective

Question: What about the “AR-target gene FKBP5 expression” value (HCI-13 tumor fragments; 3 days) of the same compound?
Answer: induced

Question: What about the MKI67 expression (HCI-13 tumor fragments; 3 days) of the same compound?
Answer: inhibited

Question: For `CC#C[C@]1(O)CC[C@H]2[C@@H]3CCC4=CC(=O)CCC4=C3[C@@H](c3ccc(N(C)C)cc3)C[C@@]21C` [RU486, reference compound], which IC50 (PR) is on record?
Answer: 0.048 nM

Question: `C[C@]12CCC(=O)C=C1CC[C@@H]1[C@@H]2[C@@H](O)C[C@]2(C=O)[C@@H](C(=O)CO)CC[C@@H]12` [aldosterone, reference compound] was tested. Which “MR activity, induction” value (MR) did it give?
Answer: 60 fold

Question: For `CC(=O)[C@H]1CC[C@H]2[C@@H]3CCC4=CC(=O)CC[C@]4(C)[C@H]3CC[C@]12C` [Progesterone, progesterone, reference compound], which PR activation (PR; 1 nM) is on record?
Answer: 23 folds

Question: Which “reversal of pS2 gene expression inhibited by Formula IX” value (HCI-13 tumor fragments) does the source give for `CCCCCCCCCCCCCC(=O)O[C@@H]1[C@@H](C)[C@@]2(O)[C@@H](C=C(CO)C[C@]3(O)C(=O)C(C)=C[C@@H]23)[C@@H]2C(C)(C)[C@]12OC(C)=O` [PMA, phorbol 12-myristate 13-acetate] here?
Answer: completely reversed

Question: For EGF: epidermal growth factor, which “reversal of pS2 gene expression inhibited by Formula IX” value (HCI-13 tumor fragments) is on record?
Answer: only marginally reversed
